Source: patent US20180200233A1, “COMPOSITIONS FOR PREVENTING CANCERS ASSOCIATED WITH HUMAN PAPILLOMA VIRUSES” (Loma Linda University, priority 2015, published 2018)

Legend:
GST-E6/His-E6AP = biological target: T1, GST-E6/His-E6AP (Human papillomavirus type 16, UniProt P03126); experiment: AlphaScreen bead-based assay, GST-E6/His-E6AP binding; set-up: species or system HPV 16
T1 construct: made in house
Method: FIGS. 2A-C are graphs providing data regarding inhibition of protein-protein interactions by 3-(1H-indol-1yl)propan-1-amine (1), three benzimidazole derivatives (2-4), and spinacine (5). Compounds, at the indicated concentrations (1.4 μM to 3.2 mM) were tested using a bead-based screening assay for their ability to inhibit three different protein/protein interactions: (FIG. 2A) GST-E6/His-caspase 8; (FIG. 2B) GST-E6/HisE6AP; and (FIG. 2C) GST-caspase 8/His-caspase 8. Binding in the presence of 1.4 μM of the test compound was set at 100%. Experiments were performed in triplicate, and error bars indicate the standard deviation.
To determine the dose-responsiveness of these five compounds, variable concentrations of those small molecules were first tested for their ability to inhibit E6/caspase binding. […] These molecules, which had been selected for their ability to interfere with E6/caspase 8 binding, were then tested to determine if they could also affect other interactions of E6, such as its binding to E6-associated protein (E6AP). The E6/E6AP interaction is required for the E6-mediated acceleration of p53 degradation (Huibregtse, J. M., M. Scheffner, and P. M. Howley, A cellular protein mediates association of p53 with the E6 oncoprotein of human papillomavirus types 16 or 18. The EMBO journal, 1991. 10(13): p. 4129-35).
Alpha-Screen™ technology was used to assess the interactions between GST-E6, GST-caspase 8, His-E6AP, and His-caspase 8. Binding assays were performed in white 384-well plates (Perkin-Elmer) in a total volume of 25 μl as previously described (Tungteakkhun, S. S., et al., The interaction between human papillomavirus type 16 and FADD is mediated by a novel E6 binding domain. Journal of virology, 2008. 82(19): p. 9600-14). Briefly, 5 μl (50 ng) of GST-E6 and 5 μl (87.5 ng) of His-caspase 8 were included in each reaction mixture with 5 μl blocking buffer (0.5 mg BSA, 0.5% Tween 20 in PBS) in the absence or presence of 10 μM of each test chemical. Members of the library were present at […] in DMSO. After a one-hour incubation of the mixture at room temperature, 5 μl donor beads and 5 μl acceptor beads (Perkin-Elmer) were added to each well according to the manufacturer's protocol. The mixture was incubated in the dark at room temperature overnight, and the emitted signal was detected using the Envision Multilabel plate reader (Perkin-Elmer). In the presence of test chemicals, the binding affinity was calculated as a percentage of the binding in the presence of carrier only (DMSO).

p53 level in C33A cells = experiment: p53 ELISA in C33A cells; type: cell-based, human; details: 200 μM myricetin, 100 μM spinacine; with mitomycin C, 24 h
Method: FIGS. 6A-B is an immunoblot and FIG. 6B is a graph showing that treatment with myricetin and spinacine (5) increased cellular levels of caspase 8 and p53. (FIG. 6A) SiHa cells (1×10^6 per well) were seeded into a 6-well plate and allowed to incubate overnight. The indicated concentrations of myricetin and spinacine were added, then cells were incubated for 24 h. Cells were then washed in 1×PBS, then harvested and the resulting level of caspase 8 was measured by immunoblot. (FIG. 6B) SiHa and C33A cells (1×10^6 per well) were seeded into a 6-well plate and allowed to incubate overnight. 200 μM of myricetin and 100 μM spinacine were added together with 4 μg/ml mitomycin C and incubated for 24 h. The resulting level of p53 was measured by ELISA, and the level of p53 found in untreated cells was set at 100%. Experiments were performed in triplicate, and error bars indicate the standard deviation.
If this ability is due to inhibition of E6 functions, then an increase in the levels of caspase 8 and p53 should be observable in SiHa cells following treatment with myricetin and spinacine. To test this prediction, SiHa cells were treated with 50, 100, and 200 μM of myricetin or spinacine for 24 hr, and then measured the level of caspase 8 by immunoblot. […] To ask how p53 levels were affected, an ELISA assay was employed. […]

T1 sequence (P03126 whole entry): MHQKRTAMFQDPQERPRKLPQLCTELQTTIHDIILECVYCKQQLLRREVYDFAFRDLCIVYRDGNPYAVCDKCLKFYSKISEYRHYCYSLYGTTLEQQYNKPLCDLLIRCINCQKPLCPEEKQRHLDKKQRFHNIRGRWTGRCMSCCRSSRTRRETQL

| SMILES | EC50 for GST-E6/His-E6AP interaction (GST-E6/His-E6AP; bead-based assay, compounds tested 1.4 μM to 3.2 mM) | inhibition of E6/E6AP interaction (in words) (GST-E6/His-E6AP; FIG. 2B) | change in p53 levels in C33A cells (in words) (p53 level in C33A cells) |
| --- | --- | --- | --- |
| OCn1cnc2ccccc21 [Compound 3, 1H-benzimidazole-1-methanol] | No Inhibition | – | – |
| O=C(O)C1Cc2[nH]cnc2CN1 (stereo not shown) [Compound 5, 4,5,6,7-Tetrahydro-1H-imidazo(4,5-c)pyridine-6-carboxylic acid] | – | could also inhibit the E6/E6AP interaction | no significant change |
| O=c1c(O)c(-c2cc(O)c(O)c(O)c2)oc2cc(O)cc(O)c12 [Myricetin, reference compound] | – | – | no significant change |
